Experiments:
Format in all cases: in vivo
[1] = tested on: Gala apple; test: Thinning study of Gala apple (Michigan), repeat, Example 3
Excerpt: In a study carried out in Michigan, 3'-methyl-(S)-abscisic acid was mixed with 6-benzyladenine and compared with a mixture of S-ABA and 6-benzyladenine. 3'-Methyl-(S)-abscisic acid was formulated as a potassium salt in an aqueous. S-ABA was formulated as potassium salt in an aqueous formulation. […]®, a 2% (w/w) 6-benzyladenine formulation, was used as the source of 6-benzyladenine (“6-BA” in the following tables). The treatments were applied to McIntosh apple in fields when the fruit reached 10 mm in size. Six single tree replicates were sprayed with the equivalent of 100 gallons per acre using a motorized backpack mist blower. All the trees in the study were matched to about the same size and initial cropload. The fruit was harvested at maturity and the average fruit weights for each treatment group were recorded. The results are shown in Table 1 (the lower the number of fruits, the greater the thinning effect of the treatment). The thinning study of Gala apple was repeated in Gala in Michigan following the same protocol described in Example 1. In addition to S-ABA and 3'methyl-(S)-ABA, 3'-propargyl-(S)-ABA was also tested for this effect.

[2] = tested on: Gala apple; test: Thinning study of Gala apple (Washington), chemical thinning followed by hand thinning, Example 4; conditions: in combination with 6-benzyladenine 28 g/acre; 300 ppm derivative vs 1000 ppm S-ABA
Procedure: Another thinning study of Gala apple was carried out in Washington using a procedure of chemical thinning followed by hand thinning. For chemical thinning, trees (size matched across all the treatment groups) were sprayed with 6-benzyladenine combined with S-ABA or S-ABA derivatives at about the 10 mm fruit diameter timing, as described in Example 1. After a period known as “June drop,” the trees were further thinned by hand to achieve the essentially identical fruit load that was deemed to be the appropriate crop load. This practice will ensure a uni-size apple crop. With this protocol, a lower requirement for the number of fruits removed by hand indicates a more efficacious chemical thinning treatment.

[3] = tested on: Rich Lady peach; test: Thinning study on Rich Lady peach (Yakima, Washington), Example 5; conditions: for Effect on fruit size (percent fruit 125 count/box or larger), in words / Effect on hand thinning required / fruit drop, in words: 30-300 ppm 3′-methyl-(S)-abscisic acid, 300-1000 ppm S-ABA; for Harvest percent fruit 125 ct/box or larger / Number hand thinned per tree: 0.05% Regulaid surfactant; for Number hand thinned per tree: hand thinned after fruit drop period
Procedure: A study was conducted in Washington (Yakima, Wash.) to determine the effect of S-ABA and 3′-methyl-(S)-abscisic acid on Rich Lady peach thinning. In this study, the initial fruit set prior to treatment was relatively uniform across the treatment groups with the exception of the 300 ppm 3′-methyl-(S)-abscisic acid treatment that had lower fruit set. Following the treatments and a period of time for fruit to drop, the trees were hand-thinned to achieve a desired commercially optimal fruit load.

[4] = tested on: McIntosh apple; test: Thinning study of McIntosh apple (Michigan), Example 1; conditions: in combination with 6-benzyladenine 28 g/acre; 100 ppm derivative vs 1000 ppm S-ABA
Excerpt: In a study carried out in Michigan, 3'-methyl-(S)-abscisic acid was mixed with 6-benzyladenine and compared with a mixture of S-ABA and 6-benzyladenine. 3'-Methyl-(S)-abscisic acid was formulated as a potassium salt in an aqueous. S-ABA was formulated as potassium salt in an aqueous formulation. […]®, a 2% (w/w) 6-benzyladenine formulation, was used as the source of 6-benzyladenine (“6-BA” in the following tables). The treatments were applied to McIntosh apple in fields when the fruit reached 10 mm in size. Six single tree replicates were sprayed with the equivalent of 100 gallons per acre using a motorized backpack mist blower. All the trees in the study were matched to about the same size and initial cropload. The fruit was harvested at maturity and the average fruit weights for each treatment group were recorded. The results are shown in Table 1 (the lower the number of fruits, the greater the thinning effect of the treatment).

[5] = tested on: Gala apple; test: Thinning study of Gala apple (Michigan), Example 2; conditions: in combination with 6-benzyladenine 28 g/acre
Excerpt: In a study carried out in Michigan, 3'-methyl-(S)-abscisic acid was mixed with 6-benzyladenine and compared with a mixture of S-ABA and 6-benzyladenine. 3'-Methyl-(S)-abscisic acid was formulated as a potassium salt in an aqueous. S-ABA was formulated as potassium salt in an aqueous formulation. […]®, a 2% (w/w) 6-benzyladenine formulation, was used as the source of 6-benzyladenine (“6-BA” in the following tables). The treatments were applied to McIntosh apple in fields when the fruit reached 10 mm in size. Six single tree replicates were sprayed with the equivalent of 100 gallons per acre using a motorized backpack mist blower. All the trees in the study were matched to about the same size and initial cropload. The fruit was harvested at maturity and the average fruit weights for each treatment group were recorded. The results are shown in Table 1 (the lower the number of fruits, the greater the thinning effect of the treatment). A further study was carried out in Michigan, following the same protocol as described in Example 1.

SMILES	Thinning effect, in words ([1]; in combination with 6-benzyladenine)	Thinning potency relative to S-ABA (in words) [2]	Effect on fruit size (percent fruit 125 count/box or larger), in words [3]	Effect on hand thinning required / fruit drop, in words [3]	Harvest percent fruit 125 ct/box or larger ([3]; 300 ppm) [%]	Number hand thinned per tree ([3]; 300 ppm) [per tree]	Harvest percent fruit 125 ct/box or larger ([3]; 1000 ppm) [%]	Number hand thinned per tree ([3]; 1000 ppm) [per tree]	Thinning potency relative to S-ABA [4]	Thinning potency relative to S-ABA (in words) [5]	Thinning potency relative to S-ABA (in words) ([1]; in combination with 6-benzyladenine 28 g/acre, 100 ppm derivative vs 300 ppm S-ABA)	Harvest percent fruit 125 ct/box or larger ([3]; 30 ppm) [%]	Number hand thinned per tree ([3]; 30 ppm) [per tree]	Harvest percent fruit 125 ct/box or larger ([3]; 100 ppm) [%]	Number hand thinned per tree ([3]; 100 ppm) [per tree]
C#CCC1=C(C)[C@](O)(/C=C/C(C)=C\C(=O)O)C(C)(C)CC1=O [3′-propargyl-(S)-ABA, (2Z,4E)-5-((S)-1-hydroxy-2,6,6-trimethyl-4-oxo-3-(prop-2-yn-1-yl)cyclohex-2-en-1-yl)-3-methylpenta-2,4-dienoic acid]	caused significant thinning	about three times more potent than S-ABA													
CC1=CC(=O)CC(C)(C)[C@@]1(O)/C=C/C(C)=C/C(=O)O [S-ABA, (S)-abscisic acid]			small increase in the fruit size in a dose dependent manner	did not reduce the hand thinning required	27.6	61.2	29.7	67.8							
CC1=C(C)[C@](O)(/C=C/C(C)=C\C(=O)O)C(C)(C)CC1=O [3′-methyl-(S)-ABA, (2Z,4E)-5-((S)-1-hydroxy-2,3,6,6-tetramethyl-4-oxocyclohex-2-en-1-yl)-3-methylpenta-2,4-dienoic acid]		about three times more potent than S-ABA	increases with higher use rate	caused fruit drop (thinning)	37.6	45.4			about 10 times	more potent than S-ABA	about three times more potent than S-ABA	25.0	61.8	30.2	59.2

Source: US9872492B2, “(S)-abscisic acid derivatives for thinning” (Valent BioSciences Corporation, priority 2015, dated 2018)
